We go through six compounds from patent US20260274843A1, “SALT AND SOLID FORMS OF A CDK INHIBITOR” (GENENTECH, INC., priority 2023, published 2026).

Type in all cases: physicochemical
A short description of data set [1]: Inter-conversion study by competitive slurry of mixed forms (XRPD). As to conditions: for resulting form after competitive slurry: RT and 50° C. or 60° C. Here is the method:
Inter-conversion study was performed by competitive slurry of mixed different forms in solvents. The concentration of all slurry suspensions was 20 mg/mL.
Equal amount of Form I, II, III and IV were added into MeOH, IPA, EA, ACN and water to make suspensions, respectively. All suspensions were stirred at RT and 50° C. The filter cakes were checked by XRPD.
Equal amount of Form I and II were added into the saturated solution of Compound (I). The suspensions were stirred in MeOH, IPA and EA at 60° C. overnight. The filter cakes were checked by XRPD.
Equal amount of Form II and VII were added into the saturated solution of Compound (I). The suspensions were stirred in IPA and EA at RT and 50° C. The filter cakes were checked by XRPD.
Equal amount of Form II and VI were slurred in different water activity system (1 mL of EtOH/water) at RT for 3 days. Solid samples were collected by filtration and analyzed by XRPD.
Equal amount of Form III and VI were slurred in water at RT and 50° C. Solid samples were collected by filtration and analyzed by XRPD.

Data set [2] is described as follows: Dynamic vapor sorption (DVS) moisture sorption/desorption. To be noted: for hygroscopicity: in words. The method, then: Moisture sorption/desorption data was collected on a DVS Intrinsic PLUS (SMS, UK). The sample was placed into a tared sample chamber and automatically weighed. The sample was dried at 40° C./0% RH until the dm/dt was less than 0.002% and cooled to 25° C. The instrument parameters were set as below. • Sample temperature: 25° C. • Min time per step: 30 min • Max time per step: 120 min • Cycle: Full cycle • Adsorption: 0, 10, 20, 30, 40, 50, 60, 70, 80, 90 • Desorption: 80, 70, 60, 50, 40, 30, 20, 10, 0 • Save data rate: 5 s • Total flow rate: 200 sccm • Post experimental total flow: 200 sscm

The nature of data set [3]: Solubility testing in bio-relevant media (SGF, FaSSIF, FeSSIF) and water at 37° C. As to conditions: after 0.5 hours. Here is the method:
The solubility of maleate Form I, and tosylate Form I were tested in bio-relevant media (SGF, FaSSIF, and FeSSIF) and water at 37° C. up to 24 hours. About 15 mg of the sample was weighed into sample vials and then 3 mL of media was added to make a suspension. All suspensions were shaken at 37° C. with a rate of 200 rpm. At 0.5, 2 and 24 hours, each suspension was filtered and the filtrate was analyzed by HPLC to test the solubility. pH of the filtrate was measured, and the filter cake was analyzed by XRPD.

Data set [4] can be described thus: Estimated solubility measurement in selected solvents at room temperature. As to conditions: thermodynamic from solid. Here is the method:
Preliminary solubility of Compound (I) was estimated in 13 selected solvents at room temperature. About 2 mg of Compound (I) was weighed into sample vials and different solvents were added with vortex, 20-200 μL per time, until the drug solution was clear by observation. The volume of solvent was up to 1000 V. Then, the estimated solubility (mg/mL) was calculated.

Data set [5] can be described thus: Physical stability at RT/92.5% RH (XRPD). As to conditions: open, 10 days. The method, then: (§1) Form II was prepared, characterized, and used for stability study. Solid stability of Form II was evaluated at RT/92.5% RH, 60° C. and 40° C./75% RH conditions for 10 days, respectively.
Appropriate amount of Form II was open put at RT/92.5% RH condition for 10 days. Then, the sample was checked by XRPD.

Data set [6] in a line: Solid stability at 40° C./75% RH and 60° C. (HPLC purity, XRPD). To be noted: open; for Purity (Area %): HPLC. Here is the method: as §1
An amount of Form II was open placed at 60° C. and 40° C./75% RH up to 10 days. At 0, 3 and 10 day, the sample was dissolved in diluent to prepare solution for purity analysis by HPLC. Solid samples were analyzed by XRPD to check the crystal form. […] Form II was physically and chemically stable at 40° C./75% RH and 60° C. for 10 days.
Appropriate amounts of maleate Form I and tosylate Form I were placed at 60° C. and 40° C./75% RH for up to 24 days. At 0 and 24 day, the sample was dissolved in diluent to prepare solution for purity analysis by HPLC. Solid samples were analyzed by XRPD to check the crystal form.

A short description of data set [7]: Mechanical treatment (grinding), XRPD check. To be noted: ground in mortar, checked at 2 min and 5 min. Here is the method: Form II (~15 mg) was ground into a mortar for about 5 minutes, and then checked by XRPD at 2 min and 5 min, respectively.
[8] abbreviates: 40° C./75% RH and 60° C., up to 10 days.

Converted amounts (≈) assume the structure as drawn.

Turning to `CC(C)c1cnn2ccc(-c3ccnc(Nc4ccc(N5CC[C@H](N(C)C)CC5=O)cn4)n3)cc12` [Form VI, (S)-4-(dimethylamino)-1-(6-((4-(3-isopropylpyrazolo[1,5-a]pyridin-5-yl)pyrimidin-2-yl)amino)pyridin-3-yl)piperidin-2-one], the “resulting form after slurry in water” value in data set [1] (RT) is on record as “transformed to Form III”.

Consider `CC(C)c1cnn2ccc(-c3ccnc(Nc4ccc(N5CC[C@H](N(C)C)CC5=O)cn4)n3)cc12` [Form III, (S)-4-(dimethylamino)-1-(6-((4-(3-isopropylpyrazolo[1,5-a]pyridin-5-yl)pyrimidin-2-yl)amino)pyridin-3-yl)piperidin-2-one], for which the “resulting form after competitive slurry” value in data set [1] (non-aqueous solvent) is on record as “transformed to Form II”. Besides, the “resulting form after slurry in water” value in data set [1] (50° C.) is on record as “to Form VI”.

As for `CC(C)c1cnn2ccc(-c3ccnc(Nc4ccc(N5CC[C@H](N(C)C)CC5=O)cn4)n3)cc12` [Form I, (S)-4-(dimethylamino)-1-(6-((4-(3-isopropylpyrazolo[1,5-a]pyridin-5-yl)pyrimidin-2-yl)amino)pyridin-3-yl)piperidin-2-one], in data set [2], the hygroscopicity entry was “non-hygroscopicity”. For the same compound, the “crystal form in water during solubility test” value in data set [3] is given as “converted to a metastable hydrate”. The “resulting form after competitive slurry” value in data set [1] (non-aqueous solvent) is given as “transformed to Form II”.

Regarding `CC(C)c1cnn2ccc(-c3ccnc(Nc4ccc(N5CC[C@H](N(C)C)CC5=O)cn4)n3)cc12` [Form IV, (S)-4-(dimethylamino)-1-(6-((4-(3-isopropylpyrazolo[1,5-a]pyridin-5-yl)pyrimidin-2-yl)amino)pyridin-3-yl)piperidin-2-one], the “resulting form after competitive slurry” value in data set [1] (non-aqueous solvent) is “transformed to Form II”.

Turning to `CC(C)c1cnn2ccc(-c3ccnc(Nc4ccc(N5CC[C@H](N(C)C)CC5=O)cn4)n3)cc12` [Compound (I), (S)-4-(dimethylamino)-1-(6-((4-(3-isopropylpyrazolo[1,5-a]pyridin-5-yl)pyrimidin-2-yl)amino)pyridin-3-yl)piperidin-2-one], the solubility in data set [4] (organic solvent or mixture, DCM) is over 120 mg/mL; in data set [4] (organic solvent or mixture, MeOH, MEK, EtOH and ACN) it was 1 to 7 mg/mL (≈ 2.13 to 14.9 mM); in data set [4] (organic solvent or mixture, THF) it was about 20 mg/mL (≈ 42.5 mM); in data set [4] (other selected solvents), under 1 mg/mL.

In the case of `CC(C)c1cnn2ccc(-c3ccnc(Nc4ccc(N5CC[C@H](N(C)C)CC5=O)cn4)n3)cc12` [Form II, (S)-4-(dimethylamino)-1-(6-((4-(3-isopropylpyrazolo[1,5-a]pyridin-5-yl)pyrimidin-2-yl)amino)pyridin-3-yl)piperidin-2-one], the “reversibility of DVS adsorption/desorption plot” value in data set [2] is on record as “nearly reversible”. Also, the “water absorbed (DVS)” value in data set [2] (0-90% RH, 25° C.) is recorded as ~ 0.5%. Moreover, in data set [2] (XRPD after DVS), the “crystal form after DVS testing” value is “remained unchanged”. In addition, the hygroscopicity result in data set [2] is recorded as “slightly hygroscopic”. Moreover, the “crystal form change (XRPD)” value in data set [5] is “No form change”; in data set [6] (setting [8]) it was “no form changed”. Further, the “degradation (purity by HPLC)” value in data set [6] (setting [8]) is “No obvious degradation”. Further, the “Purity (Area %)” value came out at 99.17 Area % in data set [6] (40° C./75% RH, 0 d (initial)); 99.15 Area % in data set [6] (40° C./75% RH, 3 d); 99.13 Area % in data set [6] (40° C./75% RH, 10 d); 99.17 Area % in data set [6] (60° C., 0 d (initial)); 99.15 Area % in data set [6] (60° C., 3 d); 99.09 Area % in data set [6] (60° C., 10 d). Moreover, in data set [7], the “crystal form after grinding” value is listed as “remained unchanged”. In data set [1] (EtOH/50% water, RT), the “resulting form in competitive slurry with Form VI” value is “transformed to the mixture of Form II and III”. Besides, the “physical stability in competitive slurry with Form VI” value in data set [1] (EtOH/water with less than 5% of water, RT) is reported as “physically stable”. Moreover, the “relative stability among anhydrous forms” value in data set [1] (temperature below 60° C., non-aqueous solvent) is reported as “most stable anhydrous form”. The “resulting form after slurry in water” value in data set [1] (50° C.) was “mixture of Form II and III”; in data set [1] (RT) it was “transform to Form III”.

The solubility is how much of the substance goes into solution per volume.
